Values quoted from earlier work, collected in patent publication US20220211667A1, “COMPOSITION FOR THE INTRAPERITONEAL TREATMENT OF SECONDARY BACTERIAL PERITONITIS WITH REDUCTION OF COMPLICATIONS” (priority 2019, published 2022).

Key:
[1] = test system: Pseudomonas aeruginosa; conditions: maximum, for Pseudomonas aeruginosa; controlled clinical trials, oral or intravenous
[2] = not given; remark: listed apart in the source
[3] = test system: strains of organisms from the susceptible genera
[4] = test system: polymorphonuclear leukocytes
[5] = test system: resistant bacterial strains; conditions: overall; controlled clinical trials, oral or intravenous
[6] = intraperitoneal; third and last day of treatment

For `C[C@@H]1O[C@@H]1P(=O)(O)O` [Fosfomycin disodium], the solubility in water is given as “highly soluble in water” and the “pH of 5% solution” value is given as 9.0-10.5.

In the case of `C[C@@H]1O[C@@H]1P(=O)(O)O` [fosfomycin, [(2R,3S)-3-methyloxiran-2-yl]phosphonic acid], the “appearance of resistant bacterial strains” value [1] is listed as 15%, the eosinophilia ([2]; evidence of allergy) is listed as 0.2% and the transient rashes ([2]; evidence of allergy) is listed as 0.3 % of cases. For the same molecule, the “transiently raised liver enzymes” value ([2]; in vivo) was 0.3 % of cases, the “tested strains showing synergistic effect” value ([3]; early studies, various antibiotic combinations) was 70-100% and the synergy rates ([3]; subsequent more extensive studies) was 36-74%. The “concentration in polymorphonuclear leukocytes relative to extracellular fluid” value [4] was “twice those of the extracellular fluid” and the “appearance of resistant bacterial strains” value [5] was 3.0%.

For `C[C@@H]1O[C@@H]1P(=O)(O)O.NC(CO)(CO)CO` [Fosfomycin trometamol], the solubility in water is given as “highly soluble in water” and the “pH of 5% solution” value is given as 3.5-5.5.

In the case of “GM-CSF: cytokine of the colony-stimulating factor family; mature human protein of 127 amino-acid residues, SEQ ID NO: 1”, the “patients with minor flu-like symptoms” value [6] is given as 2 of 8.
